Measured values from patent publication US9682995B2, “Amino-substituted isothiazoles” (BAYER PHARMA AKTIENGESELLSCHAFT, priority 2013, dated 2017).

Test system: spindle assembly checkpoint
Test: SAC-Formation - Nocodazole-Induced Assay
Format: cell-based
Details: Homo sapiens; HeLa cells, nocodazole 0.1 μg/ml, 24 h, phosphorylated histone H3 on serine 10
Source text: The spindle assembly checkpoint assures the proper segregation of chromosomes during mitosis. Upon entry into mitosis, chromosomes begin to condensate which is accompanied by the phosphorylation of histone H3 on serine 10. Dephosphorylation of histone H3 on serine 10 begins in anaphase and ends at early telophase. Accordingly, phosphorylation of histone H3 on serine 10 can be utilized as a marker of cells in mitosis. Nocodazole is a microtubule destabilizing substance. Paclitaxel is a microtubule stabilizing compound. Thus, nocodazole as well as paclitaxel interfere with microtubule dynamics and mobilize the spindle assembly checkpoint. […] The mitotic breakthrough can be detected by the decrease of cells with phosphorylation of histone H3 on serine 10. This decline is used as a marker to determine the capability of compounds of the present invention to induce a mitotic breakthrough. The typical morphological alteration of nuclei with a prematurely completed mitosis after SAC-inhibition can be monitored via image analysis routines supporting those findings.
The nocodazole and paclitaxel variations were used to focus on compounds that are capable of inhibiting a SAC induced by both microtubule destabilization as well as microtubule stabilization. When SAC inducing agents and compounds are given simultaneously, inhibitors that effectively block the SAC during formation or abrogation are identified. When cells are incubated with a SAC inducing agent and the SAC interfering compound is given after a defined time, inhibitors are identified that effectively block SAC abrogation.
Cultivated cells of the human cervical tumor cell line HeLa (ATCC CCL-2) were plated at a density of 1000 cells/well in a 1536-well microtiter plate in 2 μl PAA Ham's F12 Medium supplemented with 1% (v/v) glutamine, 1% (v/v) penicillin, 1% (v/v) streptomycin and 10% (v/v) fetal calf serum. After incubation overnight at 37° C., 10 μl/well nocodazole at a final concentration of 0.1 μg/ml were added to cells. Test compounds solubilized in dimethyl sulfoxide (DMSO) were added at various concentrations (0 μM, as well as in the range of 0.005 μM-20 μM; the final concentration of the solvent DMSO was 0.5% (v/v)). Cells were incubated for 24 h at 37° C. in the presence of test compounds in combination with nocodazole. Thereafter, cells were fixed in 4% (v/v) paraformaldehyde in phosphate buffered saline (PBS) at 4° C. overnight then permeabilized in 0.1% (v/v) Triton X™ 100 in PBS at room temperature for 20 min and blocked in 0.5% (v/v) bovine serum albumin (BSA) in PBS at room temperature for 15 min. After washing with PBS, 5 μl/well antibody solution (anti-phospho-histone H3 clone 3H10, FITC; Millipore, Cat #16-222; 1:1000 dilution) was added to cells, which were incubated for 2 h at room temperature. Afterwards, cells were washed with PBS and 5 μl/well solution of HOECHST 33342 dye (5 μg/ml) was added to cells and cells were incubated 15 min at room temperature in the dark. Cells were washed twice with PBS then covered with PBS and stored at 4° C. until analysis. Images were acquired with a PERKIN ELMER OPERA™ High-Content Analysis reader. Images were analyzed with image analysis software MetaXpress™ from Molecular devices utilizing the Mitotic Index application module. In this assay both labels HOECHST 33342 and phosphorylated Histone H3 on serine 10 were measured. HOECHST 33342 labels the DNA and is used to count the cell number. The staining of phosphorylated Histone H3 on serine 10 determines the number of mitotic cells. […] Otherwise cells were arrested at G2/M phase of the cell cycle progression. The raw assay data were further analyzed by four-parametric hill equation using Genedata's Assay Analyzer and Condoseo software.

SMILES | IC50
CCc1ccccc1NC(=O)c1c(C)nsc1Nc1cc(OC)ccn1 [Example 134] | > 20 µM
CCc1ccccc1NC(=O)c1c(C)nsc1Nc1cccc(OC)n1 [Example 148] | > 20 µM
CCc1ccccc1NC(=O)c1c(C)nsc1Nc1ncccc1OC [Example 144] | > 20 µM
COc1ccc(NC(=O)c2c(C)nsc2Nc2ccc(C#N)cn2)cc1F [Example 162] | > 20 µM
Cc1nsc(Nc2cncc(C(=O)N3CCN(C)CC3)n2)c1C(=O)Nc1ccc(F)c(F)c1 [Example 133] | 15 µM
Cc1nsc(Nc2cc(C(=O)N(C)C)ccn2)c1C(=O)Nc1ccc(F)c(F)c1 [Example 130] | > 20 µM
CCc1ccccc1NC(=O)c1c(C)nsc1Nc1nccc2ccccc12 [Example 138] | 17 µM
CCc1ccccc1NC(=O)c1c(C)nsc1Nc1ccc(C(=O)OC)cn1 [Example 145] | 7.2 µM
CCc1ccccc1NC(=O)c1c(C)nsc1Nc1ncccn1 [Example 137] | > 20 µM
CCOC(=O)c1cnc(Nc2snc(C)c2C(=O)Nc2ccc(OC)nc2)o1 [Example 150] | 16 µM
COc1ccc(NC(=O)c2c(C)nsc2Nc2nc3ncc(C(F)(F)F)cc3s2)cn1 [Example 124] | 18 µM
COc1ccc(NC(=O)c2c(C)nsc2Nc2ncc(C(=O)O)s2)cn1 [Example 126] | 19 µM
COc1ccc(NC(=O)c2c(C)nsc2Nc2ncc(C(=O)N3CCOCC3)s2)cn1 [Example 128] | 13 µM
COC(=O)c1ccnc(Nc2snc(C)c2C(=O)Nc2ccc(OC)nc2)c1 [Example 140] | > 20 µM
CCc1ccccc1NC(=O)c1c(C)nsc1Nc1ncccc1C [Example 141] | 19 µM
COc1ccnc(Nc2snc(C)c2C(=O)Nc2ccc(F)c(F)c2)c1 [Example 125] | > 20 µM
Cc1nsc(Nc2nc(C(=O)N(C)C)cs2)c1C(=O)Nc1ccc(F)c(F)c1 [Example 131] | 11 µM
CCc1ccccc1NC(=O)c1c(C)nsc1Nc1nc(C)cc(C)n1 [Example 127] | > 20 µM
CNc1cncc(Nc2snc(C)c2C(=O)Nc2ccc(F)c(F)c2)n1 [Example 132] | 14 µM
COc1ccc(NC(=O)c2c(C)nsc2Nc2nc3cnccc3s2)cn1 [Example 129] | 14 µM
CCc1ccccc1NC(=O)c1c(C)nsc1Nc1ncc(OC)cn1 [Example 135] | 16 µM
CCc1ccccc1NC(=O)c1c(C)nsc1Nc1cnc(C(N)=O)cn1 [Example 161] | 15 µM
CCOC(=O)c1cc(C)nc(Nc2snc(C)c2C(=O)Nc2ccccc2CC)c1 [Example 139] | > 20 µM
CCc1ccccc1NC(=O)c1c(C)nsc1Nc1ccccn1 [Example 142] | 14 µM
COc1ccc(NC(=O)c2c(C)nsc2Nc2ncc(C(N)=O)s2)cn1 [Example 152] | > 20 µM
CCOc1ccc(NC(=O)c2c(C)nsc2Nc2cc(C#N)ccn2)cn1 [Example 143] | > 20 µM
COC(=O)c1cnc(Nc2snc(C)c2C(=O)Nc2ccc(OC)nc2)o1 [Example 147] | 13 µM
CCc1ccccc1NC(=O)c1c(C)nsc1Nc1ncnc(C)c1C [Example 159] | 15 µM

Compounds with a lower IC50, results first:

IC50 | SMILES
1.7 µM | Cc1nsc(Nc2ccc(C(N)=O)cn2)c1C(=O)Nc1ccc(Cl)c(F)c1 [Example 151]
0.55 µM | COc1ccc(NC(=O)c2c(C)nsc2Nc2nc(-c3ccc(Cl)cc3)cs2)cn1 [Example 156]
2.8 µM | COc1ccc(Oc2ccc(NC(=O)c3c(C)nsc3Nc3ccc(C#N)cn3)cn2)cc1 [Example 157]
2.6 µM | COc1ccc(NC(=O)c2c(C)nsc2Nc2nc(C(N)=O)cs2)cn1 [Example 160]
4.2 µM | COc1ccc(NC(=O)c2c(C)nsc2Nc2ncc(C#N)s2)cn1 [Example 158]
5.8 µM | COc1ccc(NC(=O)c2c(C)nsc2Nc2ncc(C(=O)N(C)C)s2)cn1 [Example 155]
4.1 µM | CCc1ccccc1NC(=O)c1c(C)nsc1Nc1cc(C(=O)OC)ccn1 [Example 149]
6.8 µM | CCc1cnc(Nc2snc(C)c2C(=O)Nc2ccccc2CC)nc1 [Example 136]
1.4 µM | CCc1ccccc1NC(=O)c1c(C)nsc1Nc1cnc(C(=O)OC)cn1 [Example 146]
4.3 µM | CCNC(=O)c1cnc(Nc2snc(C)c2C(=O)Nc2ccc(OC)nc2)s1 [Example 154]
1.5 µM | Cc1nsc(Nc2ccc(C(=O)N(C)C)nn2)c1C(=O)Nc1ccc(F)c(F)c1 [Example 153]
0.22 µM | COc1ccc(NC(=O)c2c(C)nsc2Nc2nc3c(C(F)(F)F)ccnc3s2)cn1 [Example 123]
1.3 µM | Cc1nsc(Nc2cnccn2)c1C(=O)Nc1ccc(OC2CCCCC2)nc1 [Example 163]
